Consider eight molecules from patent US12241094B2, “Phenazine degrading agents and related compositions, methods and systems for interfering with viability of bacteria” (priority 2016, dated 2025).

“Also recorded” adds a separate entry of the source. Marks after values point to notes of the source that are not given here.

For data set [1], the system named is PA14. The experiment in a line: Redox cycles over 7 days and support of survival (Table 1). Format: cell-based, P. aeruginosa.
For data set [2] the following is noted: oxidized form, values from references a, c, d; cited from earlier work.
In data set [3] the test system is PA14. The experiment in a line: Reduction of redox-active compounds by PA14 (Table 1). The class given is cell-based, P. aeruginosa.
Another data set deals with PodA30-162. Kind of data set: Alternative substrate utilization by PodA. Format: biochemical, Mycobacterium fortuitum. To be noted: for demethylation of alternative substrate by PodA30-162 (HPLC end point): 50 μg mL^−1 PodA30-162, 4 hours, dark. How it is done:
Chemical formula diagrams of methylated substrates and their expected demethylated products, based on the prediction model, are shown, wherein arrows indicate demethylation catalyzed by PodA. Mixtures were analyzed by HPLC (right graphs) after 4 hours to determine the resulting products of each reaction. Standards for each product were run to determine retention times (indicated for each molecule with arrows). Only N-methylated phenazines were altered by incubation with PodA30-162. […] PMS, phenazine methosulfate.
Enzyme activity and analysis. PYO demethylation by PodA30-162 was first determined by HPLC analysis as described previously (6, 9). To detect formaldehyde evolution, 150 nM protein was mixed with 50 μM PYO in 1 mL of 20 mM Tris pH 7.6 amended with 200 μL Nash reagent (2 M ammonium acetate, 50 mM acetic acid, 20 mM acetylacetone) and incubated at 55° C. until the reaction proceeded to completion (37, 38). The products were determined by HPLC using the same method as used for phenazine quantification. To monitor the formation of reduced phenazine, protein and 50 μM PYO were placed into an anaerobic chamber (Coy Laboratory Products) under an atmosphere of H2/N2 (5:95) and left overnight before allowing the reaction to proceed. […] A BioTek Synergy 4 microplate reader (BioTek) plate reader in the anaerobic chamber was used to measure the emission spectrum of products with excitation at 250 nm. […] Reaction progress was monitored by measuring absorbance at 313 nm (40) every 0.5 seconds for 5 minutes. […] Kinetic parameters were calculated in Microsoft Excel using the Solver plug-in and fitting data to ideal Michaelis-Menton plots with non-linear regression of experimental data (41). For measurements of the rate of methoxy-PMS demethylation, 300 nM protein was used and methoxy-PMS loss from the reaction mixture was monitored at 500 nm wavelength. […] The stimulatory effects of flavin or 2-oxoglutarate addition was determined by adding 25 μM flavin or 2-oxoglutarate to 20 μM PYO and 15 nM PodA30-162 and monitoring the reaction. […]

The subject of data set [4] is P. aeruginosa PA14 biofilms. The experiment in a line: Biofilm formation, surface coverage (chambered coverglass, DAPI). The class given is cell-based. To be noted: 5 hours; PodA30-162 2 μg mL^−1, DNase 20 μg mL^−1; vs. PodA-inactive. The procedure: Biofilm experiments. For all experiments involving inactivated PodA, either the E154A mutant or PodA30-162 that was subjected to a 1 hour treatment at 98° C. was used. To test the ability of PodA30-162 to degrade PYO in the presence of DNA, genomic DNA (gDNA) from P. aeruginosa PA14 was used in modified versions of previously described assays (59). For experiments using DNA pellets, 0.5 mg of gDNA was pelleted in the presence of 300 mM sodium acetate, pH 5.2 and 70% ethanol. Pellets were washed with 70% ethanol and dried. 200 μL of 800 μM PYO was added to the gDNA pellet without mixing and left to sit at room temperature for 6 hours to allow for diffusion of PYO into the gDNA pellet. The pellet was washed once with 70% EtOH, and submerged in a solution containing 10 mM Tris, pH 7.0 and 40% isopropanol. The pellet remained blue, consistent with an association of PYO with DNA. PodA30-162 was added to the isopropanol solution to a final concentration of 2 μg mL^−1 and left to sit for 3 hours to allow for the reaction to proceed. Tubes were imaged before and after PodA30-162 treatment. For experiments using solubilized gDNA, a 400 μg mL^−1 solution of gDNA was mixed with PYO and allowed to equilibrate for 6 hours. The PYO gDNA mixture was amended with 1 μg mL^−1 PodA30-162 and loss of PYO was monitored on a BioTek Synergy 4 microplate reader (BioTek) plate reader at 690 nm. Standards were included to quantify PYO loss over time. To assess biofilm formation in the presence of PodA30-162, biofilms were grown in Nunc Lab-Tek chambered coverglass slides (8-well, 0.8 cm^2 area, supplier #155411) using a modified protocol (22). PA14 was inoculated into succinate minimal medium and grown overnight to stationary phase. Cells were resuspended in fresh medium and diluted to a starting OD500 of 0.5 in succinate minimal medium. PodA30-162 (2 μg mL^−1, final concentration) or DNase (20 μg mL^−1) (22) was added and 250 μL was added to each well of the 8-well chambered coverglass. Cultures were grown for 5 hours at 37° C. and 100 rpm (Innova 44 shaking incubator, New Brunswick) in a humidified chamber. After incubation, liquid was removed from each well by drawing with a pipet tip placed in the corner of each well and chambers were washed twice with 400 μL of biofilm wash (Tris buffer, pH 7.6 and 100 mM NaCl) to remove planktonic and loosely bound cells. Attached biomass was stained by adding 450 μL biofilm wash containing 10 μg mL^−1 DAPI (4′,6-diamidino-2-phenylindole) (Santa Cruz Biotechnology). Surface associated biomass was imaged on a Leica TCS SPE confocal microscope with a ACS APO 40×/1.15 oil immersion objective. A 405 nm solid-state laser was used for excitation, and data was collected from 420-500 nm. […]

Data set [5] is described as follows: PYO demethylation by purified PodA30-162 and mutants (spectrophotometric/HPLC). Format: biochemical. To be noted: PYO demethylation; 60 nM mutant protein. The procedure:
Enzyme activity and analysis. PYO demethylation by PodA30-162 was first determined by HPLC analysis as described previously (6, 9). To detect formaldehyde evolution, 150 nM protein was mixed with 50 μM PYO in 1 mL of 20 mM Tris pH 7.6 amended with 200 μL Nash reagent (2 M ammonium acetate, 50 mM acetic acid, 20 mM acetylacetone) and incubated at 55° C. until the reaction proceeded to completion (37, 38). The products were determined by HPLC using the same method as used for phenazine quantification. To monitor the formation of reduced phenazine, protein and 50 μM PYO were placed into an anaerobic chamber (Coy Laboratory Products) under an atmosphere of H2/N2 (5:95) and left overnight before allowing the reaction to proceed. To generate reduced PYO and 1-OH-PHZ, 50 μM were mixed with 1 mM sodium dithionite. The formation of reduced phenazine products was assayed visually under UV illumination (39). A BioTek Synergy 4 microplate reader (BioTek) plate reader in the anaerobic chamber was used to measure the emission spectrum of products with excitation at 250 nm. To determine the activity of PodA30-162 in the presence of glycerol, salts, or varying pH, 30 nM protein was suspended in 500 μL buffer, 40 μM PYO was mixed with 2× solution containing the buffer of interest (500 μL), and solutions were preheated to 30 C. For pH range measurements, the following buffers were used (40 mM, adjusted with KOH): acetic acid, pH 4.9; MES, pH 5.4 and 5.7; HEPES, pH 6.1; Tris, pH 6.9 and 7.5; Bicine, pH 7.8, 8.3 and 8.7; CHES, pH 9.4. To measure reaction rates, cuvettes containing the 2×PYO solution were placed in a Evolution 260Bio UV-Vis spectrophotometer (Thermo Scientific) and 500 μL of 30 nM protein was added at time 0 (15 nM protein and 20 μM PYO, final concentration). Reaction progress was monitored by measuring absorbance at 313 nm (40) every 0.5 seconds for 5 minutes. To measure kinetic parameters (kcat, Km) 15 nM protein was used in a reaction buffer of Bicine, pH 7.8; reactions were monitored as before with measurements every 0.2 seconds. The rate from the first 10 seconds of the reaction was used for the determination of kinetic parameters. Kinetic parameters were calculated in Microsoft Excel using the Solver plug-in and fitting data to ideal Michaelis-Menton plots with non-linear regression of experimental data (41). For measurements of the rate of methoxy-PMS demethylation, 300 nM protein was used and methoxy-PMS loss from the reaction mixture was monitored at 500 nm wavelength. Methoxy-PMS was purchased from TCI America. For assays with mutant proteins, 60 nM protein was used. The stimulatory effects of flavin or 2-oxoglutarate addition was determined by adding 25 μM flavin or 2-oxoglutarate to 20 μM PYO and 15 nM PodA30-162 and monitoring the reaction. Experiments testing alternative substrates were carried out using 1 mL reaction volumes containing 20 mM Tris (pH 7.6) and 50 μg mL^−1 PodA30-162. Alternative substrates tested were 10-methylphenothiazine (AlfaAesar), phenazine methosulfate (AlfaAesar), methoxyphenazine methosulfate (TCI America), and 4-keto-N-ethylphenazine. 4-keto-N-ethylphenazine was synthesized from phenazine ethosulfate (Sigma-Aldrich) by incubating under fluorescent light overnight followed by purification by HPLC as described (6, 42). As phenazine methosulfate is light sensitive and spontaneously converts to PYO in the presence of light, all reactions were carried out in the dark, and activity was assessed by end point analysis by HPLC after 4 hours (9).

For the molecule `O=C1c2ccc(S(=O)(=O)O)cc2C(=O)c2ccc(S(=O)(=O)O)cc21` [2,6-AQDS], in the data set on PA14 [1], the “# of Redox cycles over 7 days” value is “No cycle” and the “Support survival?” value is reported as “No”. Further, the “E^0, (vs. NHE)” value in data set [2] was −184^d mV. The “Reduction by PA14?” value in the data set with PA14 [3] is “Yes (very slowly)”.

Take `CCn1c2cccc(=O)c-2nc2ccccc21` [4-keto-N-ethylphenazine]: in the data set with PodA30-162, the “demethylation of alternative substrate by PodA30-162 (HPLC end point)” value is “not demethylated or de-ethylated”.

Consider `CN1c2ccccc2Sc2ccccc21` [10-methylphenothiazine], for which, in the data set with PodA30-162, the “demethylation of alternative substrate by PodA30-162 (HPLC end point)” value was “not demethylated or de-ethylated”.

In the case of `O=C(O)c1cccc2nc3ccccc3nc12` [PCA, Phenazine-1-carboxylate], in the data set on PA14 [1], the “# of Redox cycles over 7 days” value is 22 and the “Support survival?” value was “Yes”. The “E^0, (vs. NHE)” value in data set [2] is recorded as −114^a mV. For the same molecule, the “Reduction by PA14?” value in the data set with PA14 [3] is on record as “Yes”.

`C[n+]1ccc(-c2cc[n+](C)cc2)cc1` [Paraquat]: in the data set with PA14 [1], the “# of Redox cycles over 7 days” value was “No cycle” and the “Support survival?” value is “No”. Also, the “E^0, (vs. NHE)” value in data set [2] was −446^e mV. For the same molecule, the “Reduction by PA14?” value with PA14 [3] is “No”.

For `COS(=O)(=O)[O-].COc1cccc2c1nc1ccccc1[n+]2C` [methoxy-PMS, methoxyphenazine methosulfate], the “methoxy-PMS demethylation over time” value in the data set on PodA30-162 (300 nM protein, 500 nm) is reported as “initial burst of activity followed by a slower steady state; also recorded: reaction rate slows significantly after an initial burst”.

DNase [reference compound]: in data set [4], the “biofilm surface coverage” value is given as “inhibited biofilms; also recorded: decreased surface coverage”.

B1: Y156F (protein)
chain: MTGKTKPAIIGGVAITALAAAGLGVWLFTDGRGGRSTTEPVTMTLDVKNDQVAKHDFGKPGMDVGDMDIFSDILSVDGKQVGYDGGACFFTNVTPDNPMTYCELTIHLDAGEIFARSLTPHTLAPFTMAITGGTGEYANSKGELTVSGVATPDEKFELKLTK
Turning to B1, the wild type activity in data set [5] was ~25%.
